Values quoted from earlier work as cited in patent US20150284900A1, “Novel Activator for Hydrogen Peroxide and Its Application” (priority 2014, published 2015).

Details: in water; room temperature (20° C.)

ionization constant: 1.78×10^−12
Compound: OO [Activator H2O2, Hydrogen peroxide]
